Data set [1] can be described thus: Kinetic solubility in liquid formulation containing mannitol and glycine buffer. It is filed as physicochemical. The following applies: 4% mannitol; for Solubility (kinetic): 50 mM glycine sodium; for solubility kinetic at 1 day / solubility kinetic at 2 day / solubility kinetic at 3 day / solubility kinetic at 4 day / solubility kinetic at 5 day: IV vehicle: 50 mM glycine sodium, thermodynamic from solid; for solubility kinetic at 5 day: pH 8.8, Day 5. The method, then: Three solid state forms of Elinogrel were tested: i.e., Form B (mono potassium hemi hydrate), Form C (hemi potassium trihydrate), and the Free Acid form. Excess Elinogrel (i.e., ˜10 mg/ml when fully dissolved) was equilibrated with the IV vehicle composed of 50 mM glycine sodium and 4% mannitol at RT or refrigerated. The pH was monitored and adjusted to the target range using NaOH or HCl.

Data set [2] is described as follows: Solubility in co-solvents (propylene glycol, ethanol). It is filed as physicochemical. The following applies: propylene glycol/ethanol co-solvent mixture, aqueous with cosolvent or surfactant or cyclodextrin, thermodynamic from solid, 10% EtOH, no pH adjustment, 25° C. As for the experimental part:
Excess Elinogrel potassium solids were added into ½ mL of 25% or 75% propylene glycol with 10% ethanol and the suspensions were equilibrated for 12 days at ambient temperature. Solubilities were determined by analyzing concentration of supernatants via HPLC.

Data set [3] can be described thus: Solubility in sodium sulfobutyl ether β-cyclodextrin solutions over time. It is filed as physicochemical. The method, then:
A set of samples in 0, 10, 20, and 40% sodium sulfobutyl ether β-cyclodextrin with no pH adjustment were equilibrated for 12 days and concentrations of supernatants at 1, 3, 6, and 12 days were determined.
The solubility results of Elinogrel potassium at various sodium sulfobutyl ether β-cyclodextrin concentrations as a function of time (without pH adjustment) are shown in Table 4. […] There is a continued decrease of solubility overtime, before it approaching plateau at each SBE-β-CD level.

A short description of data set [4]: pKa, logP and logD of Elinogrel. It is filed as physicochemical.
Data set [5] is described as follows: Aqueous solubility of the free acid form. It is filed as physicochemical. As to conditions: aqueous medium, aqueous buffer; pH 1.0-7.4.
Data set [6] is described as follows: Thermodynamic solubility at different pH at 37° C. The following applies: aqueous slurry, thermodynamic from solid. It is filed as physicochemical. The method, then:
The thermodynamic solubility of Elinogrel potassium salt and free acid in pH range of 1-10 at 37° C. was also determined. Excess Elinogrel free acid or potassium salt (start from Form B) was equilibrated with its aqueous slurries at various pH under constant agitation. Different amounts of NaOH or HCl solution were used to adjust pH. Solubility was determined after 3 days by analyzing the elinogrel concentration in supernatant of the slurry after ultracentrifugation.

The test system of data set [7] is Male New Zealand White rabbits. As to the kind of experiment: Rabbit vein and tissue irritation study. As to conditions: 4% mannitol, perivascular and subcutaneous, 5 days. It is filed as in vivo. The method, then:
Male New Zealand White rabbits were utilized in this study. Rabbits received 3 injections:
Intravenous (IV): 1.0 mL in left marginal ear vein;
Perivascular: 0.5 mL near the right marginal ear vein; and
Subcutaneous (SC): 1.0 mL in the scapular region of the dorsal back.
There were four rabbits per each of the following dose groups.
Normal Saline: 0.9% sodium chloride
Vehicle: 10 mM sodium glycine, 4% mannitol, pH 9.31
Elinogrel (Na salt) at 16.7 mg/mL in 10 mM glycine, 4% mannitol, pH 9.33
Elinogrel (K salt) at 4.0 mg/mL in 50 mM glycine, 4% mannitol, pH 9.38
On day 5, tissues (ears and skin) were harvested and processed for histological examination of the injection site.

The conditions of data set [8]: pH 9.3.
Method: (§1) The white to off-white wet solids were collected by centrifugation at 13,000 rpm for 5 min and supernatant removal.
Another data set can be described thus: physchem. As to conditions: thermodynamic from solid, S (solubility).

Converted amounts (≈) assume the structure as drawn. Like-named read-outs stand apart in the source and are kept apart here.

Method for physchem: as §1

A word on the kinetic solubility: it is solubility judged after dilution from a stock solution rather than from solid. One may read the solubility as how much of the substance goes into solution per volume. Turning to `CNc1cc2[nH]c(=O)n(-c3ccc(NC(=O)NS(=O)(=O)c4ccc(Cl)s4)cc3)c(=O)c2cc1F` [Elinogrel potassium (Form B)], the “Solubility (kinetic)” value in data set [1] (RT, pH 8.8, Day 1, listed as Elinogrel K salt-Form B, potassium salt) worked out at 5930 µg/mL; in data set [1] (RT, pH 8.8, Day 2, listed as Elinogrel K salt-Form B, potassium salt) it was 5200 µg/mL; in data set [1] (RT, pH 8.8, Day 3, listed as Elinogrel K salt-Form B, potassium salt), 1750 µg/mL; in [1] (RT, pH 8.8, Day 4, listed as Elinogrel K salt-Form B, potassium salt), 2080 µg/mL; in [1] (RT, pH 8.8, Day 5, listed as Elinogrel K salt-Form B, potassium salt) it was 1370 µg/mL; in [1] (RT, pH 9, Day 1, listed as Elinogrel K salt-Form B, potassium salt), 5890 µg/mL. Moreover, the “Solubility (kinetic)” value was determined as 3560 µg/mL in [1] (RT, pH 9, Day 2, listed as Elinogrel K salt-Form B, potassium salt); 1780 µg/mL in data set [1] (RT, pH 9, Day 3, listed as Elinogrel K salt-Form B, potassium salt); 1950 µg/mL in [1] (RT, pH 9, Day 4, listed as Elinogrel K salt-Form B, potassium salt); 1290 µg/mL in data set [1] (RT, pH 9, Day 5, listed as Elinogrel K salt-Form B, potassium salt). Further, the kinetic solubility at 1 day in [1] (5 °C, pH 8.8, aqueous buffer, 5° C., pH 8.8, Day 1) was determined as 5480 µg/mL. The compound further returned a solubility (kinetic) at 2 day in data set [1] (5 °C, pH 8.8, aqueous buffer, 5° C., pH 8.8, Day 2) of 4020 µg/mL. Also, in data set [1] (5 °C, pH 8.8, aqueous buffer, 5° C., pH 8.8, Day 3), the kinetic solubility at 3 day turned out to be 1580 µg/mL. The solubility (kinetic) at 4 day in data set [1] (5 °C, pH 8.8, aqueous buffer, 5° C., pH 8.8, Day 4) came to 1580 µg/mL. The kinetic solubility at 5 day in data set [1] (5 °C, pH 8.8, aqueous buffer, 5° C.) worked out at 1110 µg/mL. Besides, the solubility at 12 d in data set [2] (25% PG, pH 7.0, read-out: S (solubility)) worked out at 8000 µg/mL; in [2] (75% PG, pH 7.3, read-out: S (solubility)), 21000 µg/mL.
Regarding `CNc1cc2[nH]c(=O)n(-c3ccc(NC(=O)NS(=O)(=O)c4ccc(Cl)s4)cc3)c(=O)c2cc1F` [Elinogrel potassium (Form C)], the “Solubility (kinetic)” value turned out to be 2360 µg/mL in data set [1] (RT, pH 8.8, Day 1, listed as Elinogrel K-Form C, potassium salt) and 1920 µg/mL in data set [1] (RT, pH 8.8, Day 2, listed as Elinogrel K-Form C, potassium salt). This compound also returned a kinetic solubility at 3 day in data set [1] (pH 8.8, aqueous buffer, RT, pH 8.8, Day 3) of 1790 µg/mL. Further, in data set [1] (pH 8.8, aqueous buffer, RT, pH 8.8, Day 4), the solubility (kinetic) at 4 day is 2150 µg/mL. The compound also had a solubility (kinetic) at 5 day in data set [1] (pH 8.8, aqueous buffer, RT) of 1450 µg/mL. Further, in data set [3] (20% sodium sulfobutyl ether β-cyclodextrin vs water), the “solubility in 20% sodium sulfobutyl ether β-cyclodextrin relative to that in water” value is “approximately 4 fold”. Besides, the Elinogrel potassium conc. in data set [3] (20% sodium sulfobutyl ether β-cyclodextrin, 12 d, no pH adjustment (pH~7), potassium salt) is recorded as 11.5 mg/mL.
A word on the pKa: it is the pH at which an ionisable group is half protonated. High values mean a weaker acid or stronger base, low ones a stronger acid or weaker base. As a reminder, the solubility (thermodynamic) is the concentration in solution at equilibrium with solid. `CNc1cc2[nH]c(=O)n(-c3ccc(NC(=O)NS(=O)(=O)c4ccc(Cl)s4)cc3)c(=O)c2cc1F` [Elinogrel, [4-(6-Fluoro-7-methylamino-2,4-dioxo-1,4-dihydro-2H-quinazolin-3-yl)-phenyl]-5-chloro-thiophen-2-yl-sulfonylurea]: the logP result in data set [4] is recorded as “about 2.5”. The compound also registered a pKa in data set [4] of approximately 3.3. Further, the logD entry in data set [4] (pH 7.4) is “about −1.6”. The compound further had a solubility in data set [5] of less than 100 µg/mL. The “Solubility (kinetic)” value in data set [1] (RT, pH 9, Day 5, listed as Elinogrel free acid-Form B) stood at 4050 µg/mL (≈ 7730 µM). Also, the solubility (kinetic) at 1 day in data set [1] (pH 9, aqueous buffer, RT, pH 9, Day 1) was found to be 3140 µg/mL (≈ 5990 µM). This compound gave a solubility (kinetic) at 2 day in data set [1] (pH 9, aqueous buffer, RT, pH 9, Day 2) of 3230 µg/mL (≈ 6160 µM). In data set [1] (pH 9, aqueous buffer, RT, pH 9, Day 3), the kinetic solubility at 3 day was 3330 µg/mL (≈ 6360 µM). The kinetic solubility at 4 day in data set [1] (pH 9, aqueous buffer, RT, pH 9, Day 4) turned out to be 2650 µg/mL (≈ 5060 µM). In addition, the solubility (thermodynamic) at 3 days in [6] (aqueous buffer, pH 3.00) is 0.057 µg/mL (≈ 0.109 µM); in [6] (aqueous buffer, pH 8.11), 418 µg/mL (≈ 799 µM); in data set [6] (pH 1.1, simulated gastric fluid, pH 1.10) it was 0.03 µg/mL (≈ 0.0573 µM); in [6] (pH adjusted with NaOH or HCl, aqueous buffer, pH 5.97) it was 0.544 µg/mL (≈ 1.04 µM); in data set [6] (pH adjusted with NaOH or HCl, aqueous buffer, pH 6.61) it was 2.17 µg/mL (≈ 4.14 µM); in [6] (pH adjusted with NaOH or HCl, aqueous buffer, pH 7.22), 46.6 µg/mL (≈ 88.9 µM). Moreover, the solubility (thermodynamic) at 3 days is 0.022 µg/mL (≈ 0.042 µM) in [6] (pH adjusted with NaOH or HCl, pH 4.2, aqueous buffer, pH 4.20) and 0.002 µg/mL (≈ 0.00382 µM) in [6] (simulated gastric fluid, pH 1.88). Also, the tolerability of injection entry is reported as “well tolerated” in data set [7] (K salt at 4.0 mg/mL in 50 mM glycine, pH 9.38, intravenous) and “well tolerated” in [7] (Na salt at 16.7 mg/mL in 10 mM glycine, pH 9.33, intravenous).
Consider `CNc1cc2[nH]c(=O)n(-c3ccc(NC(=O)NS(=O)(=O)c4ccc(Cl)s4)cc3)c(=O)c2cc1F` [Elinogrel sodium hydrate], for which the “S (solubility)” value in [8] was found to be 17000 µg/mL. Further, the solubility amounted to 13000 µg/mL in the data set “physchem” (4 °C, water); 23000 µg/mL in the data set “physchem” (pH 9.2, water); 16000 µg/mL in “physchem” (pH 9.3, aqueous buffer).

These data come from US20130131089A1, “DOSAGE FORMS OF ELINOGREL AND METHODS OF INJECTABLE ADMINISTRATION THEREOF” (Portola Phamaceuticals Inc., priority 2010, published 2013).
